Patent US20060293282A1, “Substituted aminoalkanephosphonic acids” (priority 2002, published 2006)

How the values were obtained:
[1] = tested on: Wistar Kyoto rats; assay: Test 1: NMDA-antagonist induced locomotion; type: in vivo; conditions: rat
Method: Test 1: NMDA-Antagonist Induced Locomotion:
Male Wistar Kyoto rats (Iffa Crédo, Lyon, France) weighing between 250 and 310 g are used. In principle 4 treatment groups are formed: 1) the compound (doses 1, 3 or 10 mg/kg) followed by the competitive NMDA receptor antagonist (S)-2-amino-3-(2′-chloro-5-phosphonomethyl-biphenyl-3-yl)-propionic acid, hereinafter SDZ 220-581 (10 mg/kg), 2) solvent-pretreatment followed by SDZ 220-581 (10 mg/kg), 3) solvent followed by solvent, 4) the compound (1, 3, 10 mg/kg) followed by solvent. Rats are randomly allocated to these pretreatment groups (n=10/dose group). Drugs are administered subcutaneous (s.c.), 15 min prior to SDZ 220-581. Immediately after the animals received SDZ 220-581, they are placed into the activity monitor for a period of 60 min. Locomotor activity is analysed over the initial 30 minutes.
Locomotion is recorded with a videotracking system (VideoMot2, TSE Technical and Scientific Equipment GmbH, Bad Hombourg, Germany), using a closed circuit digital videocamera (WV-BP.330/GE, Panasonic, Osaka, Japan). The video-signal from the camera is digitized and used for data analysis. Animals are on a normal 12/12 h day-night cycle, with light on at 06:00H. Experiments are performed in a dimly lit room between 07:00 H and 15:00H. […] The camera is placed such, that four animals (one per arena) can be recorded simultaneously.

[2] = tested on: patients with diabetic neuropathy; assay: clinical study of chronic pain in patients with diabetic neuropathy; type: in vivo, human; conditions: 2400 mg/day, Maintenance and Follow-up Periods, statistically significant
Method: The activity of the compounds of formula I in the treatment of neuropathic pain can be confirmed in clinical trials, for example in the following study aimed at evaluating the efficacy of a compound in treating chronic pain in patients with diabetic neuropathy:
Patients are randomized to receive 2400 mg/day of the compound or placebo in a 1:1 ratio.
The study consists of a Pre-randomization Phase (1 week) and a Double-blind Phase (5 weeks). The double-blind Phase consists of three periods: a one week Titration Period, a three-week Maintenance Period and a one-week Follow-up Period.
During the 1-week Pre-randomization Phase, the eligibility of the patients is evaluated. Patents meeting all inclusion/exclusion criteria are randomized to either the compound or placebo in the Double-blind Phase. […]
The SF-MPQ total pain score at the end of the Maintenance Period is analyzed using an analysis of covariance model adjusting for the effect of treatment on post-treatment scores by using the baseline SF-MPQ total pain score as a covariate. Average weekly pain severity is analyzed using an analysis of covariance model with repeated measures using the treatment week and the mean pain severity rating during the Pre-randomization Phase as covariates. Usage of rescue medication during the Double-blind Phase is analyzed using the Cochran-Mantel-Haenszel test controlling for center. […]

[3] = tested on: Wistar rats; assay: model of neuropathic pain in the rat (partial sciatic nerve ligation, mechanical hyperalgesia); type: in vivo; conditions: 10 mg/kg p.o., after 3 hours
Text: The activity of the compounds in the treatment of neuropathic pain is evidenced, for example, in the following model of neuropathic pain in the rat:
Wistar rats are anaesthetised with enflurane and a small incision is made mid-way up one thigh to expose the sciatic nerve. The nerve is cleared of connective tissue and a 7-0 silk suture is inserted into the nerve using a ⅜ curved reverse-cutting min-needle, and tightly ligated so that the dorsal ⅓ to ½ of the nerve thickness is held within the ligature. The muscle and skin are closed with sutures and clips and the wound dusted with antibiotic powder. […] Mechanical hyperalgesia is assessed by measuring paw withdrawal thresholds on both the ipsilateral (ligated) and contralateral (unligated) hindpaw to an increasing pressure stimulus applied to the paw using an analgesymeter (Ugo-Basile) with a wedge-shaped probe (area 1.75 mm^2) and a cut-off threshold of 250 g. […] Reversal of established hyperalgesia by administered compounds is measured 12-14 days following surgery, using 6 animals per treatment group. Paw withdrawal thresholds are measured prior to and then up to 6 hours following drug or vehicle administration. Statistical analysis is carried out on withdrawal threshold readings using ANOVA followed by Tukey's HSD test comparing drug treated and time-matched vehicle treated animals.

[4] = tested on: Wistar Kyoto rats; assay: Test 2: NMDA-channel blocker induced head swaying and circling; type: in vivo; conditions: rat, 10 mg/kg s.c., 0-30 min
Method: Test 2: NMDA-Channel Blocker Induced Head Swaying and Circling:
Adult male Wistar Kyoto rats (340-380 g; Iffa Credo, Lyon, France) are used. The animals are randomized to the following treatment groups (n=10 per group): the compound (dosed 0, 3 or 10 mg/kg) followed by phencyclidine (PCP; an NMDA channel blocker, dosed 0 or 10 mg/kg). Compound (at t=−15 min) and PCP (at t=0 min) are administered s.c. in a volume of 1 ml/kg. Video-recordings of the animals behaviour over the period 0-30 min following PCP are scored by an observer who is unaware about the animals pretreatment. Head-swaying (rocking the head repeatedly by at least 2 cm left and right) and circling (turning around by using the forepaws, whereas the hindpaws remain more or less on the original position) are scored as present (1) or absent (0), every five minutes for the duruation of 1 minute. The scores for individual animals is summed and group scores used for statistical analysis (t-test with Bonferroni correction).

[5] = tested on: neurons; conditions: superfusion, in vitro
Text: The activity in tinnitus of the compounds is indicated in standard tests, e.g. in the salicylate-induced tinnitus model.

[6] = tested on: auditory neurons; assay: extracellular electrophysiological recording of auditory neuron firing rate

Compound: N[C@@H](Cc1cc(CP(=O)(O)O)cc(-c2ccccc2Cl)c1)C(=O)O [SDZ 220-581, (S)-2-amino-3-(2′-chloro-5-phosphonomethyl-biphenyl-3-yl)-propionic acid]
- distance walked during 30 min ([1]; 10 mg/kg s.c., control animals approximately 8-10 m): approximately 30 m

Compound: O=c1[nH]c2cc([N+](=O)[O-])cc(CNCP(=O)(O)O)c2[nH]c1=O [{[(7-nitro-2,3-dioxo-1,2,3,4-tetrahydro-quinoxalin-5-ylmethyl)-amino]-methyl}-phosphonic acid]
- pain severity ratings relative to placebo [2]: decrease pain severity ratings relative to placebo
- effect of the NMDA-antagonist SDZ 220-581 on locomotion after pretreatment ([1]; compound 10 mg/kg s.c., SDZ 220-581 10 mg/kg s.c.): almost normalized
- maximal reversal of neuropathic mechanical hyperalgesia [3]: 35%

Compound: c1ccc(C2(N3CCCCC3)CCCCC2)cc1 [PCP, phencyclidine]
- head-swaying and circling induced [4]: weak head-swaying and circling

Compound: O=C(O)c1ccccc1O [salicylate]
- excitability of the recorded neurons [5]: increases the excitability
- firing rate of auditory neurons [6]: increase in the firing rate

Compound: C=C[C@H]1C[N@@]2CC[C@H]1C[C@H]2[C@H](O)c1ccnc2ccc(OC)cc12 [quinine]
- firing rate of auditory neurons [6]: increase in the firing rate
